From the supplement of paper PMC10307832

How the values were obtained:
Test in all cases: relative viability (nuclei count vs DMSO), 5 days (fraction); higher = more cells survive
[1] = compound: C1CNCCC1C2=CC(=NN2)C3=CC=NC=C3 + CC(C)C[C@H](NC(=O)[C@H](Cc1ccccc1)NC(=O)c1cnccn1)B(O)O [Bortezomib] (partner 0.002 µM)
In short: (§1)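 Relative viability was taken as the ratio of nuclei in treated wells to nuclei in vehicle wells. Lung cancer cell lines in 1536-well plates received compounds by pin tool one day after seeding, either one drug alone or a fixed anchor-drug dose plus five library-drug doses (not always all listed) in √10 steps. Nuclei were counted on 4× images after 5 days of treatment, and values are medians of duplicate plates.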

[2] = compound: C1CNCCC1C2=CC(=NN2)C3=CC=NC=C3 + O=C(c1cc(Cc2n[nH]c(=O)c3ccccc23)ccc1F)N1CCN(C(=O)C2CC2)CC1 [Olaparib] (partner 8 µM)
In short: as §1

Tanzisertib + Navitoclax = compound: O[C@H]1CC[C@H](Nc2ncc3nc(Nc4c(F)cc(F)cc4F)n([C@H]4CCOC4)c3n2)CC1 [Tanzisertib] + CC1(C)CCC(c2ccc(Cl)cc2)=C(CN2CCN(c3ccc(C(=O)NS(=O)(=O)c4ccc(N[C@H](CCN5CCOCC5)CSc5ccccc5)c(S(=O)(=O)C(F)(F)F)c4)cc3)CC2)C1 [Navitoclax] (partner 0.5 µM)
In short: as §1

Tanzisertib + Crizotinib = compound: O[C@H]1CC[C@H](Nc2ncc3nc(Nc4c(F)cc(F)cc4F)n([C@H]4CCOC4)c3n2)CC1 [Tanzisertib] + C[C@@H](Oc1cc(-c2cnn(C3CCNCC3)c2)cnc1N)c1c(Cl)ccc(F)c1Cl [Crizotinib] (partner 1 µM)
In short: as §1

UMC-11 was tested, and the relative viability ([1]; first compound 0.08 µM) was 0.643, the relative viability ([1]; first compound 0.8 µM) was 0.919 and the relative viability ([1]; first compound 2.53 µM) was 0.786. It also gave a relative viability ([1]; first compound 8 µM) of 0.688, a relative viability ([2]; first compound 0.08 µM) of 0.403 and a relative viability ([2]; first compound 0.8 µM) of 0.379. It also gave a relative viability ([2]; first compound 2.53 µM) of 0.436, a relative viability ([2]; first compound 8 µM) of 0.365 and a relative viability (Tanzisertib + Navitoclax; first compound 0.08 µM) of 0.33. For the same cell line, the relative viability (Tanzisertib + Navitoclax; first compound 0.253 µM) was 0.319, the relative viability (Tanzisertib + Navitoclax; first compound 0.8 µM) was 0.362 and the relative viability (Tanzisertib + Navitoclax; first compound 2.53 µM) was 0.342. It also gave a relative viability (Tanzisertib + Navitoclax; first compound 8 µM) of 0.392, a relative viability (Tanzisertib + Crizotinib; first compound 0.08 µM) of 0.654 and a relative viability (Tanzisertib + Crizotinib; first compound 0.253 µM) of 0.703. For the same cell line, the relative viability (Tanzisertib + Crizotinib; first compound 0.8 µM) was 0.631, the relative viability (Tanzisertib + Crizotinib; first compound 2.53 µM) was 0.687 and the relative viability (Tanzisertib + Crizotinib; first compound 8 µM) was 0.675.
